From US20020127605A1 (priority 2000, published 2002) come the findings set out here.

The term IC50 denotes the concentration at which inhibition is half-maximal.

One assay has as its target human recombinant CyPA (Homo sapiens, UniProt P62937). Briefly: Semiautomated microtiter plate assay of rotamase activity inhibition. Type of assay: biochemical. Particulars: 30 minute preincubation at 4° C., read-out: IC50 (rotamase inhibition, modified plate reader assay). Here is the method:
Semiautomated Assay of Rotamase Activity Inhibition: Rotamase inhibition was determined using a semiautomated microtiter plate assay modification of the above described assay [see Küillertz et al., Clin. Chem. 44, 502-508 (1998)]. All dilutions of CyPA, peptide substrate, and chymotrypsin were made in 35 mM ice-cold HEPES buffer. Fifty μL of CyPA solution were added to 50 μL of peptide substrate solution (Phe-Pro-Phe p-nitroanilide, 0.16 mg/ml) in a glass microtiter well plate (the concentration of human recombinant CyP being adjusted so that the reaction rate is increased by a factor of 3 as compared to an uncatalyzed control reaction wherein the peptide substrate is degraded by chymotrypsin alone, in the absence of CyPA and test compound). Using a Beckman Multimek™ 96 automated 96-channel pipettor, 5 μL of test compound solution, or a DMSO blank, were added to each well for a 30 minute preincubation at 4° C. One hundred μL of chymotrypsin solution (1 mg/mL) were added to each well and the absorbance at 390 nm versus time was monitored for 9-10 minutes using a BioRad Ultramark plate reader maintained at 4° C. and the rate constants were determined from the absorbance versus time data files. The cyclophilin utilized was a human recombinant CyPA [Yoo et al., J. Mol. Biol., 269 (1997) 780-95].
IC50 values which were obtained for representative compounds using this modified plate reader assay of rotamase inhibition are given in the following Table II: […]

Assay [1] addresses T1, recombinant rat CyPA-GST fusion protein (Rattus norvegicus, UniProt P10111).
T1 construct: made in house; host or cells: E. coli BL21
Briefly: Rotamase (prolyl peptidyl cis-trans isomerase) inhibition, chymotrypsin-coupled cuvette assay. It counts as biochemical. An excerpt:
A number of substrates for rotamase are known in the art or can be derived from those known. Typically, the substrate contacts a sample containing a protein with rotamase activity and the conversion of the substrate is detected after a period of time. The method for detecting conversion of the substrate will vary with the particular substrate chosen. One method has been termed the Ki test (See Harding, et al., Nature, 341:758-760 (1989). The cis-trans isomerization of an alanine-proline bond in a model substrate, N-succinyl-Ala-Ala-Pro-Phe-p-nitroanilide, is monitored spectrophotometrically in a chymotrypsin-coupled assay. The action of chymotrypsin releases p-nitroaniline from only the trans form of the substrate. The amount of p-nitroaniline can be monitored in a spectrophotometer, for example. Other methods of detecting the presence of p-nitroaniline can also be used. The inhibition of this reaction caused by different concentrations of inhibitor is determined and the data are analyzed as a change in first-order rate constant as a function of inhibitor concentration, which yields the Ki value.
The following were added to a plastic cuvette: […] of ice cold assay buffer (25 mM HEPES, pH 7.8, 100 mM NaCl), 10 μL of CyP A (2.5 μM in 10 mM Tris-Cl pH 7.5, 100 mM NaCl, 1 mM dithiothreitol), 25 μL of chymotrypsin (50 mg/ml in 1 mM HCl), and 10 μL of test compound, at various concentrations, in dimethyl sulfoxide. The reaction was initiated by the addition of 5 μL of substrate (succinyl-Ala-Phe-Pro-Phe-para-nitroanilide, 5 mg/mL in 470 mM LiCl in trifluoroethanol). The absorbance at 390 nm versus time was monitored for 90 seconds using a spectrophotometer and the rate constants were determined from the absorbance versus time data files.
The IC50 values that were obtained for representative compounds in the following Table I refer to the concentration that inhibits 50% of the rotamase activity in a sample. […] The Cyclophilin utilized was a recombinant rat CyPA-GST fusion protein: CypA was amplified from rat brain cDNA using standard PCR methods, primed with the following sequences: 5′ CCCCCCGGGAGTCAACCCCACCGTGTTCTTCGA 3′ and 5′ GGAGATCTAGAGTTGTCCACAGTCGGAGATGGT 3′. The resulting fragment (573 base pairs) was cloned into pCRII and amplified. The CyP sequence was cut out with Smal and EcoRl and cloned into the Smal/EcoRl sites in pGEX2TK (Pharmacia). This plasmid was transformed into BL21 E. coli cells for expression of the GST-CyPA fusion protein.

Setting [2] is: recombinant rat CyPA-GST fusion protein, values without asterisk, read-out: IC50 (rotamase activity).

Like-named read-outs stand apart in the source and are kept apart here.

T1 sequence (P10111 2-164): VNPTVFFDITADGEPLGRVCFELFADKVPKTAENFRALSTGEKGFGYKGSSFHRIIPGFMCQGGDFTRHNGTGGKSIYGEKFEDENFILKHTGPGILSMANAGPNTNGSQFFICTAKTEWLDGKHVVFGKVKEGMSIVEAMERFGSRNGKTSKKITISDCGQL
Sequence of human recombinant CyPA (P62937 whole entry): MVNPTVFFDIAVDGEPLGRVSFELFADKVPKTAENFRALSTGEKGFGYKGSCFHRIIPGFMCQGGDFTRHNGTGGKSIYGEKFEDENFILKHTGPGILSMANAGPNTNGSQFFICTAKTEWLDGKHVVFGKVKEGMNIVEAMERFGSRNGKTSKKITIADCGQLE

`O=C(CCCCc1ccccc1)Nc1cccc(-c2nnc(Nc3ccc(Cl)c(Cl)c3)o2)c1` [Compound 40B, 5-Phenyl-pentanoic acid {3-[5-(3,4-dichloro-phenylamino)-[1,3,4]oxadiazol-2-yl]-phenyl}-amide]: the IC50 on human recombinant CyPA is 883 nM.
Regarding `O=C(Nc1cc(Cl)cc(Cl)c1)[C@H]1CC[C@@H](NC(=S)Nc2cc(Cl)cc(Cl)c2)C1` [Compound 19], the IC50 in assay [1] (setting [2]) was found to be 754 nM.
On the same count and under the same terms, with `O=C(NNC(=S)Nc1cc(Cl)cc(Cl)c1)c1cccc(OCc2cc(C(F)(F)F)cc(C(F)(F)F)c2)c1` [Compound 23] the figure was 895 nM; with `S=C(Nc1cc(Cl)cc(Cl)c1)Nc1cccc(C=C(c2ccc(Cl)cc2)c2ccc(Cl)cc2)c1` [Compound 20], 188 nM.
For the compound `O=C(Nc1cccc(N(S(=O)(=O)c2cc(Cl)cc(Cl)c2)S(=O)(=O)c2cc(Cl)cc(Cl)c2)c1)Nc1c(Cl)cccc1Cl` [Compound 6], the concentration for half-maximal inhibition (IC50) in assay [1] came to 990 nM.
As for `S=C(Nc1cc(Cl)cc(Cl)c1)NC1CCCCC1NC(=S)Nc1cc(Cl)cc(Cl)c1` (centres unmarked) [Compound 15, [(3,5-dichlorophenyl)amino]{[2-({[(3,5-dichlorophenyl)amino]thioxomethyl}amino)cyclohexyl]amino}methane-1-thione], in assay [1] (setting [2]), the IC50 is 610 nM.
Take `O=C(CCCCc1ccccc1)Nc1cccc(/C=N/NC(=S)Nc2ccc(Cl)c(Cl)c2)c1` [Compound 39, N-{3-[(1E)-2-aza-2-({[(3,4-dichlorophenyl)amino]thioxomethyl}amino)vinyl]phenyl}-5-phenylpentanamide]: the IC50 on human recombinant CyPA was determined as 1410 nM.
Consider `O=C(CCCCCc1cccc(C(F)(F)F)c1)Nc1cccc(C(=O)NNC(=S)Nc2ccc(Cl)c(Cl)c2)c1` [Compound 32, 1-{[1-Aza-2-oxo-7-(3-trifluoromethylphenyl)]heytyl}-3-{[5-(3 4-dichlorophenyl)-1-oxo-2,3,5-triaza-4-thio]pentyl}benzene], for which, on human recombinant CyPA, the IC50 is 154 nM.
On the same count and under the same terms, to `O=C(CCCCc1ccccc1)Nc1ccc(C(=O)NNC(=S)Nc2ccc(Cl)c(Cl)c2)cc1` [Compound 43, 1-{4-[(5-Phenyl)pentanoylamino]benzoyl}-4-(3,4-dichlorophenyl)thiosemicarbazide] belongs 1570 nM.
Consider `FC(F)(F)c1cc(NC(=S)NC2CCCCC2NC(=S)Nc2cc(C(F)(F)F)cc(C(F)(F)F)c2)cc(C(F)(F)F)c1` (centres unmarked) [Compound 12, {[3,5-bis(trifluoromethyl)phenyl]amino}({2-[({[3,5-bis(trifluoromethyl)phenyl]amino}thioxomethyl)amino]cyclohexyl}amino)methane-1-thione], for which the IC50 in assay [1] (setting [2]) came out at 767 nM.
For the compound `O=C(CCCCc1cccs1)Nc1cccc(C(=O)NNC(=S)Nc2ccc(Cl)c(Cl)c2)c1` [Compound 38, 1-{[1-Aza-2-oxo-6-(thien-2-yl)]hexyl}-3-{[5-(3,4-dichlorophenyl)-1-oxo-2,3,5-triaza-4-thio]pentyl}benzene], at human recombinant CyPA, the IC50 was 672 nM.
Same read-out and setting: to `O=C(CCCCCCc1ccccc1)Nc1cccc(C(=O)NNC(=S)Nc2ccc(Cl)c(Cl)c2)c1` [Compound 37, 1-{3-[(7-Phenyl)heptanoylamino]benzoyl}-4-(3,4-dichlorophenyl)thiosemicarbazide] belongs 532 nM.
Take `O=C(Nc1cc(Cl)cc(Cl)c1)Nc1ccccc1NC(=O)Nc1cc(Cl)cc(Cl)c1` [Compound 27]: in assay [1], the IC50 is 667 nM.
For the compound `O=C(Nc1cc(Cl)cc(Cl)c1)N[C@H]1CC[C@@H](NC(=O)Nc2cc(Cl)cc(Cl)c2)CC1` [Compound 16, cis-[(3,5-Dichlorophenyl)amino]-N-(4-{[(3,5-dichlorolphenyl)amino]carbonylamino}cyclohexyl)formamide], the IC50 in assay [1] (setting [2]) worked out at 1530 nM.
Consider `COc1ccc(S(=O)(=O)N(c2cccc(NC(=O)c3cc(Cl)cc(Cl)c3)c2)S(=O)(=O)c2ccc(C)cc2)cc1` [Compound 3], for which, in assay [1], the IC50 came to 955 nM.
For `S=C(Nc1cc(Cl)cc(Cl)c1)Nc1ccccc1NC(=S)Nc1cc(Cl)cc(Cl)c1` [Compound 28, [(3,5-dichlorophenyl)amino]{[2-({[(3,5-dichlorophenyl)amino]thioxomethyl}amino)phenyl]amino}methane-1-thione], the IC50 in assay [1] (setting [2]) came to 1100 nM.
For the compound `O=C(Nc1cc(Cl)cc(Cl)c1)[C@@H]1C=C[C@H](NC(=S)Nc2cc(Cl)cc(Cl)c2)C1` [Compound 18, (1S,3R)-N-(3,5-dichlorophenyl)[4-({[(3,5-dichlorolphenyl)amino]thioxomethyl}amino)cyclopent-2-enyl]formamide], the IC50 in assay [1] (setting [2]) was found to be 901 nM.
Same read-out and setting: to `O=C(COc1cccc(NC(=O)c2cc(Cl)cc(Cl)c2)c1)Nc1cc(Cl)cc(Cl)c1` [Compound 24, N-(3,5-dichlorophenyl)-2-{3-[(3,5-dichlorolphenyl)carbonylamino]phenoxy}ethanamide] belongs 909 nM.
Regarding `O=C(Nc1cc(Cl)cc(Cl)c1)Nc1cccc(N(S(=O)(=O)c2cc(Cl)cc(Cl)c2)S(=O)(=O)c2cc(Cl)cc(Cl)c2)c1` [Compound 7], the IC50 in assay [1] was found to be 1220 nM.
On to `COc1ccc(S(=O)(=O)N(c2cccc(N(S(=O)(=O)c3cc(Cl)cc(Cl)c3)S(=O)(=O)c3cc(Cl)cc(Cl)c3)c2)S(=O)(=O)c2ccc(OC)cc2)cc1` [Compound 10, (3-{Bis[(3,5-dichlorolphenyl)sulfonyl]amino}phenyl)bis[(4-methoxyphenyl)sulfonyl]amine], for which the IC50 in assay [1] (setting [2]) amounted to 732 nM.
The same measure, in the same setting: to `COc1ccc(S(=O)(=O)N(c2cccc(N(S(=O)(=O)c3cc(Cl)cc(Cl)c3)S(=O)(=O)c3cc(Cl)cc(Cl)c3)c2)S(=O)(=O)c2ccc(C)cc2)cc1` [Compound 4, (3-{bis[(3,5-dichlorophenyl)sulfonyl]amino}phenyl)[(4-methoxy-phenyl)sulfonyl][(4-methylphenyl)sulfonyl]amine] belongs 995 nM; to “bis[(3,5-dichlorophenyl)sulfonyl](3-{[(naphthylamino) thioxomethyl]amino}phenyl)amine [Compound 5]”, 783 nM.
In the case of `O=C(Nc1cccc(Oc2ccccc2)c1)Nc1cc(C(F)(F)F)cc(C(F)(F)F)c1` [Compound 26], in assay [1], the IC50 turned out to be 1560 nM.
Consider `O=C(Nc1cccc(OS(=O)(=O)c2c(F)c(F)c(F)c(F)c2F)c1)c1cc(Cl)cc(Cl)c1` [Compound 25, 3-[(3,5-dichlorophenyl)carbonylamino]phenyl 2,3,4,5,6-penta-fluorobenzenesulfonate], for which the IC50 in assay [1] (setting [2]) is 964 nM.
Consider `O=C(Nc1cc(Cl)cc(Cl)c1)[C@@H]1CC[C@H](NC(=S)Nc2cc(Cl)cc(Cl)c2)C1` [Compound 17], for which the IC50 in assay [1] was found to be 854 nM.
The same measure, in the same setting: with `O=C(Nc1ccccc1NC(=O)c1ccc(I)cc1)c1ccc(I)cc1` [Compound 29] the figure was 940 nM.
Turning to `COc1ccc(S(=O)(=O)N(c2cccc(NC(=O)Nc3cc(Cl)cc(Cl)c3)c2)S(=O)(=O)c2ccc(C)cc2)cc1` [Compound 1, [(3,5-dichlorophenyl)amino]-N-(3-{[(4-methoxylihenyl)sulfonyl][(4-methylphenyl)sulfonyl]amino}phenyl)formamide], the IC50 in assay [1] (setting [2]) came out at 162 nM.
Take `S=C(Nc1ccc(Cl)c(Cl)c1)NC1CCCCC1NC(=S)Nc1ccc(Cl)c(Cl)c1` (centres unmarked) [Compound 14, [(3,4-dichlorophenyl)amino]{[2-({[(3,4-dichlorophenyl)amino]thioxomethyl}amino)cyclohexyl]amino}methane-1-thione]: the IC50 in assay [1] (setting [2]) was determined as 786 nM.
On to `Cc1ccc(S(=O)(=O)N(c2cccc(NC(=O)Nc3cc(Cl)cc(Cl)c3)c2)S(=O)(=O)c2ccc(C)cc2)cc1` [Compound 2], for which the IC50 in assay [1] stood at 149 nM.
